Results as given in patent US20230220339A1, “T CELL, PREPARATION METHOD FOR SAME, AND APPLICATIONS THEREOF” (BENETHERA (BEIJING) BIOTECHNOLOGY CO., LTD., priority 2020, published 2023).

How the values were obtained:
Assay type in all cases: cell-based, mouse
m-calpain = test: Calpain activity by digestion of the calpain substrate CMAC (flow cytometry); conditions: for calpain activity (digestion rate of CMAC) after Ryr activation: 4-CMC treatment, FIG. 7
Method: Wherein calpain activity measurement procedure: To measure calpain activity, 10^5 T cells were incubated in 200 µL of medium containing 20 µM calpain substrate CMAC (t-BOC-Leu-Met, Thermo Fisher) in the dark at room temperature. After 5 min of incubation, the reaction was terminated with 1 % PFA (Biosharp) and the cells were immediately placed on ice. The fluorescent signal emitted from the digested substrate was measured as calpain activity by Fortessa flow cytometer through the Hoechst blue channel. In all experiments, the inhibitor JTV519 was added 30 min prior to the experiments, and activator 4-CmC and CMAC were added at the same time.

3T3 and A20 cells = test: 4-CmC-induced Ca^2+ signal in cells with or without FoxP3 overexpression; conditions: FoxP3-transfected 3T3 and A20 cells vs non-FoxP3 overexpression group, HBSS without calcium ions, FIG. 24
Method: For non-adherent cells, Treg, Tconv and A20 cells were stained with […] fluo-4 AM (Thermo Fisher) for 1 h at 37° C. After washing, the cells were adhered to poly-L-lysine coated (0.1 mg/mL; Sigma-Aldrich) round glass slides mounted in the sandwich home-made chamber at room temperature. After 15 min, excess non-adherent cells were removed by washing with buffer. For adherent cells, NIH-3T3 and Renca cells grown on glass slides were stained with […] fluo-4 AM (Thermo Fisher) for 1 hour at 37° C. The measurement chamber was then placed on an Olympus IX-73 microscope equipped with a 20-fold (numerical aperture: 0.8) or 40-fold (numerical aperture: 1.2) Olympus objective. Unless otherwise stated, Ca^2+ oscillation within 20 min was recorded at intervals of 6 s. […] For the stimulation experiments, Ca^2+ oscillation within 5 min was recorded at intervals of 1 s. […] The emission signal at 468 nm to 550 nm excited by the 488 nm laser was recorded with a charge coupled device camera (ORCA-AG, Hamamatsu). […] The mean fluorescence intensity changes over time in individual cells were analyzed using ImageJ and normalized with fluorescence intensity in the first frame (Fluo-4 F / F0). The peak of Ca^2+ oscillation of the individual cells was shown, and the standard deviation of Ca^2+ fluctuation intensity was calculated as Mean ± SEM. […]

DC2.4 cells = test: AFM single cell force spectrum, T-DC adhesion (two-cell system); conditions: Ryr2 blocked in Tconv; intensities even stronger than that of Treg, FIG. 14
Method: The atomic force microscope-based single cell force spectrum procedures were performed using JPK CellHesion device as described above (see “Alum interaction with dendritic cell membrane lipids is essential for its adjuvanticity” (Flach et al., Nat Med 17, 479-487, 2011) and “Strong adhesion by regulatory T cells induces dendritic cell cytoskeletal polarization and contact-dependent lethargy” (Chen et al., The Journal of experimental medicine, 2017)). Briefly, to measure T-DC adhesion in a two-cell system, DC2.4 cells were cultured on untreated glass plates. T cells were treated with 200 U/mL human IL-2 overnight. The glass plates were moved into an AFM compatible chamber and mounted on a machine table. Clean cantilevers were coated with CellTak (BD), and then stick an individual T cell on thefront end of the cantilever. The AFM cantilever carrying the individual T cell was lowered to allow T cell contact with a single DC and to interact for 15 s, and then moved upward until the two cells were completely separated. A force spectrum curve was obtained. The process was then repeated. […] Treg/Tconv contact-mediated inhibition of OT-II-DC adhesion was analyzed. […] For each SCFS experiment, a T-DC pair was used to generate force readings for each up-down cycle during a period of several minutes. […]

## Cc1cc(O)ccc1Cl [4-CmC]
m-calpain; Tconv cells
  calpain activity (digestion rate of CMAC) after Ryr activation: completely able to induce calpain activity
m-calpain; Treg cells
  calpain activity (digestion rate of CMAC) after Ryr activation: not sensitive
3T3 and A20 cells
  Ca^2+ signal driven by 4-CmC: drives much less Ca^2+ signal

## COc1ccc2c(c1)CN(C(=O)CCN1CCC(Cc3ccccc3)CC1)CCS2 [JTV519]
m-calpain; Tconv, inhibitor added 30 min prior, FIG. 13
  digestion of m-calpain substrate after JTV519 treatment: digestion of low m-calpain substrate
DC2.4 cells
  contact of treated Tconv with dendritic cells (adhesion): induced strong contact with dendritic cells
